Measured values as given in patent publication US8106046B2, “Cyclopentathiophene modulators of the glucocorticoid receptor, AP-1, and/or NF-κB activity and use thereof” (Bristol-Myers Squibb Company, priority 2008, dated 2012).
Like-named read-outs stand apart in the source and are kept apart here.

Legend:
[1] = test system: AP-1 induced transcriptional activity; experiment: Cellular Transrepressional Assay (AP-1 luciferase reporter in A549 cells, PMA activated); format: cell-based; details: 10 ng/ml PMA, 7 hours; for AP-1 Max % inh (Cellular Transrepression Assay): maximum inhibition; for EC50: read-out: AP-1 EC50, nM (Cellular Transrepression Assay)
Method: To measure the ability of test molecules to inhibit AP-1 induced transcriptional activity we utilized an A549 cell which was stably transfected with a plasmid containing 7×AP-1 DNA binding sites (pAP-1-Luc plasmid, Stratagene Co. La Jolla, Calif.) followed by the gene for luciferase. Cells were activated with 10 ng/ml of phorbol myristic acid (PMA) plus or minus test molecules for 7 hours. After 7 hours a luciferase reagent was added to measure luciferase enzymatic activity in the cell. After a 10 minute incubation of luciferase reagent with cells, luminescence was measured in a TopCount luminescence counter. Repression of AP-1 activity was calculated as the percentage decrease in the signal induced by PMA alone. Test molecules were analyzed in the concentration range from 0.1 nM to 40 μM. EC50s were determined by using standard curve fitting methods such as Excel fit (Microsoft Co.). An EC50 is the test molecule concentration at which there is a 50% repression of the maximal inhibition of transcription, i.e., a 50% reduction of AP-1 activity.

[2] = biological target: T1, human glucocorticoid receptor (Homo sapiens, UniProt P04150); experiment: Glucocorticoid Receptor Binding Assay (I), fluorescence polarization competitor assay; details: purified human recombinant full-length GR, Fluormone GS Red
T1 construct: purified human recombinant full-length glucocorticoid receptor (2 nM); purchased Invitrogen Part #2893
T1 sequence (P04150 1-777): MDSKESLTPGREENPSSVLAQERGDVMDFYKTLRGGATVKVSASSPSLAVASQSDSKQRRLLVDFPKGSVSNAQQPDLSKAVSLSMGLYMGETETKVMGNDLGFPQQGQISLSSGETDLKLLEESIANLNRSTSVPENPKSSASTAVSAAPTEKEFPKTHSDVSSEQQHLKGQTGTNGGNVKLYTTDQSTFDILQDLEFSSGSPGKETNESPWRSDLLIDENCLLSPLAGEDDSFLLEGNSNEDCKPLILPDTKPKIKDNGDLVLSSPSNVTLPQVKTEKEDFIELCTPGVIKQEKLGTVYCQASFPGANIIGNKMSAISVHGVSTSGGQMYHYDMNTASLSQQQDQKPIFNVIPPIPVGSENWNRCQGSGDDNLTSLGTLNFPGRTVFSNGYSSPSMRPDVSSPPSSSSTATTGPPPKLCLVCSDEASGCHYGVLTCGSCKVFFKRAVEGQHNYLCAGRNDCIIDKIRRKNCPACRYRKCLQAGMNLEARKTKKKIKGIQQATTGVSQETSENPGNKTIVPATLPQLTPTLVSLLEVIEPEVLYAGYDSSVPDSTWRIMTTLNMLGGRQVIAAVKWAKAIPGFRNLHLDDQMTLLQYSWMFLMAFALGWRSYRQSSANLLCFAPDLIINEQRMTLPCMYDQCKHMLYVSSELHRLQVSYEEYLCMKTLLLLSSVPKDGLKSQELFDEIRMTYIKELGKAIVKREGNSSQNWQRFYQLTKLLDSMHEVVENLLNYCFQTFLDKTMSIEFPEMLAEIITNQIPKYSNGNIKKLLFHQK
Method: In order to assess the affinity of test compounds for the human glucocorticoid receptor, a commercially available kit was used (Glucocorticoid Receptor Competitor Assay Kit, Invitrogen Part #2893). Briefly, purified human recombinant full-length glucocorticoid receptor (2 nM) was mixed with fluorescently labeled glucocorticoid (1 nM Fluormone GS Red) in the presence or absence of test compound. After two hour incubation at room temperature in the dark, the fluorescence polarization (FP) of the samples was measured. The FP of a mixture of receptor, fluorescent probe (i.e., Fluormone GS Red) and 5 μM dexamethasone represented background fluorescence or 100% inhibition, whereas, the FP of the mixture without dexamethasone (but in the presence of vehicle) was taken to be 100% binding. […] Test compounds were analyzed in the concentration range from 8.5E-05 μM to 5 μM.

Q: Which results are given for `C[C@]1(C(=O)Nc2nncs2)Cc2sc(-c3ccc(C(=O)N4CCCC4)cc3)cc2[C@H]1c1ccccc1` (racemic) [Example 8]?
A: AP-1 Max % inh (Cellular Transrepression Assay) [1]: 42.74%; EC50 [1]: 42.1 nM

Q: Which results are given for `CN(C)C(=O)c1ccc(-c2cc3c(s2)C[C@](C)(C(=O)Nc2nncs2)[C@@H]3c2ccccc2)cc1Cl` (racemic) [Example 6]?
A: AP-1 Max % inh (Cellular Transrepression Assay) [1]: 29.32%; EC50 [1]: 53.1 nM

Q: For `CCN(C)C(=O)c1ccc(-c2cc3c(s2)CC(C)(C(=O)Nc2nncs2)C3c2ccccc2)cc1Cl` (racemic) [Example 11], which Ki [2] is on record?
A: 1.9 nM

Q: Which Ki [2] does the source give for `C[C@]1(C(=O)Nc2nncs2)Cc2sc(Br)cc2[C@H]1c1ccccc1` [Example 2, (4S,5S)-2-Bromo-5-methyl-4-phenyl-N-(1,3,4-thiadiazol-2-yl)-5,6-dihydro-4H-cyclopenta[b]thiophene-5-carboxamide] here?
A: 5.34 nM

Q: `CN(C)C(=O)c1ccc(-c2cc3c(s2)C[C@@](C)(C(=O)Nc2nncs2)[C@H]3c2ccccc2)cc1` [Example 19] was tested. Which “AP-1 Max % inh (Cellular Transrepression Assay)” value (“AP-1 Max % inh” below) [1] did it give?
A: 38.78%

Q: And the EC50 [1]?
A: 21.8 nM

Q: For `CN(C)C(=O)c1ccc(-c2cc3c(s2)C[C@](C)(C(=O)Nc2nncs2)[C@@H]3c2ccccc2)cc1` (racemic) [Example 5], which “AP-1 Max % inh” value [1] is on record?
A: 43.98%

Q: And the EC50 [1]?
A: 14 nM

Q: `C[C@@]1(C(=O)Nc2nncs2)Cc2sc(Br)cc2[C@@H]1c1ccccc1` [Example 3, (4R,5R)-2-Bromo-5-methyl-4-phenyl-N-(1,3,4-thiadiazol-2-yl)-5,6-dihydro-4H-cyclopenta[b]thiophene-5-carboxamide] was tested. Which Ki [2] did it give?
A: 1.8 nM

Q: Which results are given for `C[C@]1(C(=O)Nc2nncs2)Cc2sc(-c3ccc(C(=O)N4CCCC4)cc3)cc2[C@H]1c1ccccc1` [Example 16]?
A: AP-1 Max % inh (Cellular Transrepression Assay) [1]: 56.78%; EC50 [1]: 290 nM

Q: Which “AP-1 Max % inh” value [1] does the source give for `CCN(C)C(=O)c1ccc(-c2cc3c(s2)C[C@](C)(C(=O)Nc2nncs2)[C@@H]3c2ccccc2)cc1F` (racemic) [Example 10] here?
A: 27.94%

Q: What about the EC50 [1] of the same compound?
A: 24.2 nM

Q: Which “AP-1 Max % inh” value [1] does the source give for `C[C@]1(C(=O)Nc2nnc(C(=O)NC3CC3)s2)Cc2sc(-c3ccc(C(=O)N4CCOCC4)cc3)cc2[C@H]1c1ccccc1` [Example 21] here?
A: 60.04%

Q: And the EC50 ([1]; Homo sapiens)?
A: 22.8 nM

Q: Which “AP-1 Max % inh” value [1] does the source give for `CN(C)C(=O)c1ccc(-c2cc3c(s2)C[C@](C)(C(=O)Nc2nncs2)[C@@H]3c2ccccc2)cc1F` (racemic) [Example 9] here?
A: 26.03%

Q: What about the EC50 [1] of the same compound?
A: 40.2 nM

Q: For `CCN(C)C(=O)c1ccc(-c2cc3c(s2)C[C@](C)(C(=O)Nc2nncs2)[C@@H]3c2ccccc2)cc1` [Example 15], which “AP-1 Max % inh” value [1] is on record?
A: 53.20%

Q: And the EC50 [1]?
A: 18.8 nM

Q: Which results are given for `C[C@]1(C(=O)Nc2nncs2)Cc2sc(-c3ccc(C(=O)N4CCOCC4)cc3)cc2[C@H]1c1cccc(F)c1` (relative stereo) [Example 24, (Cis)-4-(3-fluorophenyl)-5-methyl-2-(4-(morpholine-4-carbonyl)phenyl)-N-(1,3,4-thiadiazol-2-yl)-5,6-dihydro-4H-cyclopenta[b]thiophene-5-carboxamide]?
A: AP-1 Max % inh (Cellular Transrepression Assay) [1]: 37.80%; EC50 ([1]; Homo sapiens): 23.1 nM

Q: `Cc1nnc(NC(=O)C2(C)Cc3sc(-c4ccc(C(=O)N5CCOCC5)cc4)cc3C2c2ccccc2)s1` (racemic) [Example 23] was tested. Which “AP-1 Max % inh” value [1] did it give?
A: 29.00%

Q: And the EC50 [1]?
A: 452 nM

Q: How did the “AP-1 Max % inh” value [1] turn out when `C[C@]1(C(=O)Nc2nncs2)Cc2sc(-c3ccc(C(=O)N4CCOCC4)cc3)cc2[C@H]1c1ccccc1` (racemic) [Example 7] was run?
A: 44.81%

Q: And the EC50 [1]?
A: 22.5 nM

Q: Which results are given for `CN(C)C(=O)c1ccc(-c2cc3c(s2)C[C@](C)(C(=O)Nc2nncs2)[C@@H]3c2ccccc2)cc1` [Example 12]?
A: AP-1 Max % inh (Cellular Transrepression Assay) [1]: 43.11%; EC50 [1]: 29.1 nM

Q: `CN(C)C(=O)c1ccc(-c2cc3c(s2)C[C@](C)(C(=O)Nc2nncs2)[C@@H]3c2ccccc2)cc1Cl` [Example 14] was tested. Which “AP-1 Max % inh” value [1] did it give?
A: 42.02%

Q: What about the EC50 [1] of the same compound?
A: 63.7 nM

Q: How did the “AP-1 Max % inh” value [1] turn out when `C[C@]1(C(=O)Nc2nncs2)Cc2sc(-c3ccc(C(=O)N4CCOCC4)cc3)cc2[C@H]1c1ccccc1` [Example 13] was run?
A: 50.68%

Q: And the EC50 [1]?
A: 23.9 nM

Q: What does the source list for `C[C@@]1(C(=O)Nc2nncs2)Cc2sc(-c3ccc(C(=O)N4CCOCC4)cc3)cc2[C@@H]1c1ccccc1` [Example 18]?
A: AP-1 Max % inh (Cellular Transrepression Assay) [1]: 29.81%; EC50 [1]: 27.3 nM

Q: How did the “AP-1 Max % inh” value [1] turn out when `CCN(C)C(=O)c1ccc(-c2cc3c(s2)C[C@](C)(C(=O)Nc2nncs2)[C@@H]3c2ccccc2)cc1` (racemic) [Example 4] was run?
A: 52.82%

Q: What about the EC50 ([1]; Homo sapiens) of the same compound?
A: 35 nM

Q: What does the source list for `CC(C)NC(=O)c1nnc(NC(=O)C2(C)Cc3sc(-c4ccc(C(=O)N5CCOCC5)cc4)cc3C2c2ccccc2)s1` (racemic) [Example 22]?
A: AP-1 Max % inh (Cellular Transrepression Assay) [1]: 55.76%; EC50 [1]: 34.5 nM

Q: With `CC1(C(=O)Nc2nncs2)Cc2sc(Br)cc2C1c1ccccc1` (racemic) [Example 1, (+/−)-2-Bromo-5-methyl-4-phenyl-N-(1,3,4-thiadiazol-2-yl)-5,6-dihydro-4H-cyclopenta[b]thiophene-5-carboxamide] as the compound, how does the Ki [2] read?
A: 5.3 nM
